{
  "source": "BindingDB's records for doi:10.1038/42506",
  "about": "(The University of Tokyo, 1997)",
  "note": "pKi: −log10 of the molar value.",
  "data": [
    {"target": "T1, Leukotriene B4 receptor 2 (Homo sapiens, UniProt Q9NPC1)", "T1 sequence (Q9NPC1 whole entry)": "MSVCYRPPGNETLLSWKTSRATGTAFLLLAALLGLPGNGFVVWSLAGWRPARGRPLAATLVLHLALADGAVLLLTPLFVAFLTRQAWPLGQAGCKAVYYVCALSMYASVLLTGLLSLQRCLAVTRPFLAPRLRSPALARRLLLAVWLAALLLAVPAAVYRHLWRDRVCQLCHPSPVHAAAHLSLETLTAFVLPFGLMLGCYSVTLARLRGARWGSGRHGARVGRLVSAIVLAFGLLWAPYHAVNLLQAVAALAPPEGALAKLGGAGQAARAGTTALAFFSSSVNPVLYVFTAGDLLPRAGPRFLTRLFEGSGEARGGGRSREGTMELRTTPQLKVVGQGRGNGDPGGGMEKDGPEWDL", "values": [
      {"compound": "O=C(O)CCCCCC=CCC(O)C=CC=CC=CC(O)CCCC(=O)O", "note": "(stereo not given) [NSC_128572]", "pKi": 6.72},
      {"compound": "CCCCCCC=CC(=O)C=CC=CC=CC(O)CCCC(=O)O", "note": "(stereo not given) [CAS_5280876]", "pKi": 8.12},
      {"compound": "COc1ccc(/C=C/CCCCOc2cccc(OCCCCC(=O)O)c2CCC(=O)O)cc1", "note": "[ONO 4057]", "pKi": 5.92},
      {"compound": "O=C(O)CCCC(O)C=CC=CC=CC(O)CC=CCCCCCO", "note": "(stereo not given) [NSC_1589]", "pKi": 8.12},
      {"compound": "CCCCC/C=C\\C[C@H](O)/C=C/c1cccc(C[C@H](O)CCCCO)n1", "note": "[(5R)-6-[6-[(1E,3S,5Z)-3-hydroxyundeca-1,5-dienyl]pyridin-2-yl]hexane-1,5-diol]", "pKi": 6.92}
    ]}
  ]
}
